For orientation: inhibition means how much of the control response was suppressed. The IC50 is the concentration needed to halve the response being measured.

One assay deals with T1, human TRPA1 (Homo sapiens, UniProt O75762).
T1 construct: expressed in transfected cells; host or cells: CHO cells (G-418 selection)
The assay is described as follows: 45Calcium uptake assay, inhibition of AITC induced calcium uptake in human TRPA1 expressing CHO cells. Format: cell-based. Conditions: AITC 30 μM; for inhibition at 1 µM: 1.0 μM compound, read-out: human TRPA1 Percentage inhibition at 1.0 μM; for inhibition at 10 µM: 10.0 μM compound, read-out: human TRPA1 Percentage inhibition at 10.0 μM. The text has this:
(§1) The illustrative examples of the present invention are screened for TRPA1 activity according to a modified procedure described in (a) Tóth, A. et al. Life Sciences, 2003, 73, 487-498. (b) McNamara C, R. et al, Proc. Natl. Acad. Sci. U.S.A., 2007, 104, 13525-13530. The screening of the compounds can be carried out by other methods and procedures known to persons skilled in the art.
(§2) Screening for TRPA1 Antagonist Using the ^45Calcium Uptake Assay:
(§3) The inhibition of TRPA1 receptor activation was measured as inhibition of allyl isothiocyanate (AITC) induced cellular uptake of radioactive calcium.
(§4) Test compounds were dissolved in 100% DMSO to prepare 10 mM stock and then diluted using plain medium with 0.1% BSA and 1.8 mM CaCl2 to get the desired concentration. The final concentration of DMSO in the reaction was 0.5% (v/v). Human TRPA1 expressing CHO cells were grown in F-12 DMEM medium with 10% FBS, 1% penicillin-streptomycin solution, and 400 μg/ml of G-418. Rat TRPA1 expressing CHO cells were grown in F-12 DMEM medium with 10% FBS, 1% penicillin-streptomycin solution, and 400 μg/ml of Zeocin. Cells were seeded 24 h prior to the assay in 96 well plates so as to get ˜50,000 cells per well on the day of experiment. Cells were treated with the test compounds for 10 minutes followed by the addition of AITC at a final concentration of 30 μM (for human TRPA1) and/or 10 μM (for rat TRPA1) and 5 μCi/ml ^45Ca^+2 for 3 minutes. Cells were washed and lysed using a buffer containing 1% Triton X-100, 0.1% deoxycholate and 0.1% SDS. Radioactivity in the lysate was measured in a Packard TopCount after addition of liquid scintillant. (Toth et al, Life Sciences (2003) 73, 487-498; McNamara C R et al, Proceedings of the National Academy of Sciences, (2007) 104, 13525-13530).
(§5) Concentration response curves were plotted as a % of maximal response obtained in the absence of test antagonist. IC50 values can be calculated from concentration response curve by nonlinear regression analysis using GraphPad PRISM software.

A further assay has as its target T2, rat TRPA1 (Rattus norvegicus, UniProt Q6RI86).
T2 construct: expressed in transfected cells; host or cells: CHO cells (Zeocin selection)
Kind of assay: 45Calcium uptake assay, inhibition of AITC induced calcium uptake in rat TRPA1 expressing CHO cells. Format: cell-based. Conditions: AITC 10 μM; for inhibition at 1 µM: 1.0 μM compound, read-out: rat TRPA1 Percentage inhibition at 1.0 μM; for inhibition at 10 µM: 10.0 μM compound, read-out: rat TRPA1 Percentage inhibition at 10.0 μM.
From the text: as §1, §2, §3, §4, §5

T2 sequence (Q6RI86 whole entry): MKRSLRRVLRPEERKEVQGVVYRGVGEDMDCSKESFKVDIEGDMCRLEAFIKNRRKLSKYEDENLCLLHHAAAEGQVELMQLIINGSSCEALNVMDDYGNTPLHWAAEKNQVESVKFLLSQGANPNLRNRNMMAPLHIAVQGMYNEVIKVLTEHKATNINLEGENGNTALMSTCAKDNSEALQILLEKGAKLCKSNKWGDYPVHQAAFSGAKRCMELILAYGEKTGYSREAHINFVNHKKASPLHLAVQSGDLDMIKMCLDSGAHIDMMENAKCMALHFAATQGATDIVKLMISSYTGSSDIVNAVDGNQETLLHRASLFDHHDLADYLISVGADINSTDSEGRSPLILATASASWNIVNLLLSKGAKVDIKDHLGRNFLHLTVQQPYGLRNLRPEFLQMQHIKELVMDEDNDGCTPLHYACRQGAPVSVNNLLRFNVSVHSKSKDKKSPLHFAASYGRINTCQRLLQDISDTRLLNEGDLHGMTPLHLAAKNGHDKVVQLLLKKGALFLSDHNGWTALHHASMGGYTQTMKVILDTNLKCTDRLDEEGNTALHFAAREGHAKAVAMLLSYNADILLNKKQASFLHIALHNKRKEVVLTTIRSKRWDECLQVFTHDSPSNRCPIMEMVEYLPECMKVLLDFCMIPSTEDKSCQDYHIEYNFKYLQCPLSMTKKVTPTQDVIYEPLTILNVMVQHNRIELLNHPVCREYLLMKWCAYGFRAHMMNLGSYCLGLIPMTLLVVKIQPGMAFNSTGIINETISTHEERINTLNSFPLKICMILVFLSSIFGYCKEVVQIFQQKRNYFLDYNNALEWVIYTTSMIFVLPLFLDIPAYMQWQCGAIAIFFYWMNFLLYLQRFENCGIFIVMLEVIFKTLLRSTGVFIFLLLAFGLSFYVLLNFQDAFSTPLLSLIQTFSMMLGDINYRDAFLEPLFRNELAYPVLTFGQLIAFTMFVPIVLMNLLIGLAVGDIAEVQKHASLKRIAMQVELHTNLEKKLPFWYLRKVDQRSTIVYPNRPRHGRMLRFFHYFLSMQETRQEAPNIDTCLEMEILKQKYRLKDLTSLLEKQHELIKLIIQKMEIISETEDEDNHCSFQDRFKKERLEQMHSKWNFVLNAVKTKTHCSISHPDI
T1 sequence (O75762 whole entry): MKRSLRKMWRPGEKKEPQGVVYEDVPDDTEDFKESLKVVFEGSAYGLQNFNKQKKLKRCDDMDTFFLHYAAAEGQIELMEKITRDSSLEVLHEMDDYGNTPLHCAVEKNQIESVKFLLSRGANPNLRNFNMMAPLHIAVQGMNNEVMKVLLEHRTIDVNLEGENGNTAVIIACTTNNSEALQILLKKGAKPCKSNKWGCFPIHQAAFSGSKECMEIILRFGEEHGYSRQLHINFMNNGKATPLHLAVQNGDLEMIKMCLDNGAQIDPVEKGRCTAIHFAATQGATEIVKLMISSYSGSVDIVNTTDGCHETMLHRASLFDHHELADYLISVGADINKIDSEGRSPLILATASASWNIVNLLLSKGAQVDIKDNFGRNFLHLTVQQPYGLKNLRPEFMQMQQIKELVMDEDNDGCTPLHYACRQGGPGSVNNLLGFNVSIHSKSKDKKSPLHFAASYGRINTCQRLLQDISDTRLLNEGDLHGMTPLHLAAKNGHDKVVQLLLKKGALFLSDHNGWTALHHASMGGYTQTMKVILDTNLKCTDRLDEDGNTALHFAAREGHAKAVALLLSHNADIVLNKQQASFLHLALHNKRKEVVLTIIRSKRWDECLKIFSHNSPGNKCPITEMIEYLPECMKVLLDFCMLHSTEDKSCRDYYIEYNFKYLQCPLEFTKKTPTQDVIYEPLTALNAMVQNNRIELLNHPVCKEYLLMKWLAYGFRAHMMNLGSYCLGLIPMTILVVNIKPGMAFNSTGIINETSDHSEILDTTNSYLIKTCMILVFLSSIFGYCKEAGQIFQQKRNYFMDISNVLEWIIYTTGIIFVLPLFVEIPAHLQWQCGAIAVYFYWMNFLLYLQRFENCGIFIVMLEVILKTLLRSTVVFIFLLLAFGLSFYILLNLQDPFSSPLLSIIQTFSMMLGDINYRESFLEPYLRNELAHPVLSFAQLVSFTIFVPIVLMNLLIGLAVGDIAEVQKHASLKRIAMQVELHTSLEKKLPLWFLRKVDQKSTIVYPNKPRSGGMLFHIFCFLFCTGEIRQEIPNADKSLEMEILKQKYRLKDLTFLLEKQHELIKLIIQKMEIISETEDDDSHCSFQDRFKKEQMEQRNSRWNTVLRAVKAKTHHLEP

Turning to `Cn1c(=O)c2c(CC(=O)Nc3nc(-c4ccc(Cl)cc4)cs3)nsc2n(C)c1=O` [Example 12, N-[4-(4-Chlorophenyl)-1,3-thiazol-2-yl]-2-(5,7-dimethyl-4,6-dioxo-4,5,6,7-tetrahydro[1,2]thiazolo[5,4-d]pyrimidin-3-yl)acetamide], at human TRPA1, the inhibition at 1 µM worked out at 98.4%, the inhibition at 10 µM amounted to 99.2% and the IC50 was < 50 nM. For the same compound, at rat TRPA1, the inhibition at 1 µM was 94.6%, the inhibition at 10 µM is 99.5% and the IC50 is > 100 nM.

With `Cn1c(=O)c2c(CC(=O)Nc3nc(-c4ccc(F)c(C(F)(F)F)c4)cs3)nsc2n(C)c1=O` [Example 20, 2-(5,7-Dimethyl-4,6-dioxo-4,5,6,7-tetrahydro[1,2]thiazolo[5,4-d]pyrimidin-3-yl)-N-{4-[4-fluoro-3-(trifluoromethyl)phenyl]-1,3-thiazol-2-yl}acetamide], on human TRPA1, the inhibition at 1 µM came out at 99.6%, the inhibition at 10 µM was 99.8% and the IC50 was < 50 nM. Further, on rat TRPA1, the inhibition at 1 µM was 99.7%, the inhibition at 10 µM was 100% and the IC50 is < 50 nM.

On to `Cn1c(=O)c2c(CC(=O)Nc3nc(-c4ccc(C(F)(F)F)c(F)c4)cs3)nsc2n(C)c1=O` [Example 19, 2-(5,7-Dimethyl-4,6-dioxo-4,5,6,7-tetrahydro[1,2]thiazolo[5,4-d]pyrimidin-3-yl)-N-{4-[3-fluoro-4-(trifluoromethyl)phenyl]-1,3-thiazol-2-yl}acetamide], for which, at human TRPA1, the inhibition at 1 µM came out at 99.7%, the inhibition at 10 µM is 100% and the IC50 is < 50 nM. For the same compound, on rat TRPA1, the inhibition at 1 µM is 99.5%, the inhibition at 10 µM turned out to be 99.3% and the IC50 was < 50 nM.

For the compound `Cn1c(=O)c2c(CC(=O)Nc3nc(-c4ccc(F)c(F)c4)cs3)nsc2n(C)c1=O` [Example 27, N-[4-(3,4-Difluorophenyl)-1,3-thiazol-2-yl]-2-(5,7-dimethyl-4,6-dioxo-4,5,6,7-tetrahydro[1,2]thiazolo[5,4-d]pyrimidin-3-yl)acetamide], on human TRPA1, the inhibition at 1 µM is 97.8%, the inhibition at 10 µM is 99.8% and the IC50 is < 50 nM. At rat TRPA1, the inhibition at 1 µM was found to be 81.8%, the inhibition at 10 µM was 99.6% and the IC50 is > 100 nM.

As for `Cn1c(=O)c2c(CC(=O)Nc3nc(-c4ccc(C(F)(F)F)c(F)c4)cs3)snc2n(C)c1=O` [Example 4, 2-(5,7-Dimethyl-4,6-dioxo-4,5,6,7-tetrahydro[1,2]thiazolo[3,4-d]pyrimidin-3-yl)-N-{4-[3-fluoro-4-(trifluoromethyl)phenyl]-1,3-thiazol-2-yl}acetamide], on human TRPA1, the inhibition at 1 µM was found to be 99.8%, the inhibition at 10 µM was 100% and the IC50 was < 50 nM. On rat TRPA1, the inhibition at 1 µM amounted to 72.2% and the inhibition at 10 µM turned out to be 100%.

For the compound `Cn1c(=O)c2c(CC(=O)Nc3nc(-c4cccc(C(F)(F)F)c4)cs3)snc2n(C)c1=O` [Example 1, 2-(5,7-Dimethyl-4,6-dioxo-4,5,6,7-tetrahydro[1,2]thiazolo[3,4-d]pyrimidin-3-yl)-N-{4-[3-(trifluoromethyl)phenyl]-1,3-thiazol-2-yl}acetamide], on human TRPA1, the inhibition at 1 µM was 95.2%, the inhibition at 10 µM came out at 100% and the IC50 is < 50 nM. On rat TRPA1, the inhibition at 1 µM stood at 71.3%, the inhibition at 10 µM was determined as 100% and the IC50 was > 100 nM.

Consider `Cn1c(=O)c2c(CC(=O)Nc3nc(-c4ccc(Cl)c(Cl)c4)cs3)nsc2n(C)c1=O` [Example 26, N-[4-(3,4-Dichlorophenyl)-1,3-thiazol-2-yl]-2-(5,7-dimethyl-4,6-dioxo-4,5,6,7-tetrahydro[1,2]thiazolo[5,4-d]pyrimidin-3-yl)acetamide], for which, on human TRPA1, the inhibition at 1 µM worked out at 99.9%, the inhibition at 10 µM was 99.5% and the IC50 is < 50 nM. Moreover, at rat TRPA1, the inhibition at 1 µM turned out to be 97.7%, the inhibition at 10 µM came to 100% and the IC50 was > 100 nM.

`Cn1c(=O)c2c(CC(=O)Nc3nc(-c4cccc(C(F)(F)F)c4F)cs3)snc2n(C)c1=O` [Example 5, 2-(5,7-Dimethyl-4,6-dioxo-4,5,6,7-tetrahydro[1,2]thiazolo[3,4-d]pyrimidin-3-yl)-N-{4-[2-fluoro-3-(trifluoromethyl)phenyl]-1,3-thiazol-2-yl}acetamide]: on human TRPA1, the inhibition at 1 µM was 98.1%, the inhibition at 10 µM was 99.1% and the IC50 was < 50 nM. Also, at rat TRPA1, the inhibition at 1 µM came to 95.6% and the inhibition at 10 µM was 98.5%.

As to `Cn1c(=O)c2c(CC(=O)Nc3nc(-c4ccc(Cl)c(C(F)(F)F)c4)cs3)nsc2n(C)c1=O` [Example 29, 2-(5,7-Dimethyl-4,6-dioxo-4,5,6,7-tetrahydro[1,2]thiazolo[5,4-d]pyrimidin-3-yl)-N-{4-[4-chloro-3-(trifluoromethyl)phenyl]-1,3-thiazol-2-yl}acetamide], at human TRPA1, the inhibition at 1 µM is 98.1%, the inhibition at 10 µM was determined as 99.6% and the concentration for half-maximal inhibition (IC50) was < 50 nM. Moreover, at rat TRPA1, the inhibition at 1 µM was found to be 100%, the inhibition at 10 µM was 100% and the IC50 is < 50 nM.

For the origin of these results see patent publication US8575178B2, “Isothiazolo-pyrimidinedione derivatives as TRPA1 modulators” (Glenmark Pharmaceuticals S.A., priority 2009, dated 2013).
